Assay results: PMC10094171, “Development of Novel Pt(IV)-Carbohydrate Derivatives as Targeted Anticancer Agents against Osteosarcoma” (International Journal of Molecular Sciences, 2023)

Assays:
MG63 cells = experiment: 2D MTT cell viability assay, MG63 osteosarcoma cells; assay type: cell-based, Human
Procedure: (§1) The drugs were reconstituted in dimethyl sulfoxide (DMSO) at 1 mg/mL concentration, before being diluted in culture media at the required concentration. A 2D in vitro screening of all the drugs was performed at 72 h in a wide concentration range (0.5; 1.5, 5, 15, 30, 60 and 100 µM) on the three different cell lines in terms of cell viability, and the IC50 was calculated. The cell morphology in the presence of the complexes was evaluated at 15 and 30 µM concentrations, for MG63 and SAOS-2 and hFOBs cells, respectively, according to the IC50 at 72 h. […] For the models, a composite hydroxyapatite-based scaffold (MgHA/Coll), as a bone-like matrix, was used in combination with MG63 cells.
(§2) Cell culture. […] The cell number and viability were determined using the trypan blue dye exclusion test, and all cell handling procedures were performed under a laminar flow hood in sterility conditions.
(§3) MTT cell viability assay. A quantitative analysis of cell viability was carried out by using MTT assay, following the manufacturer’s instructions. […] After 15 min of incubation under slight stirring conditions, the absorbance of formazan was read at 570 nm by using a Multiskan FC Microplate Photometer (Thermo Fisher Scientific, Waltham, MA, USA). The values of absorbance are directly proportional to the number of metabolic active cells in each well. […]

hFOBs cells = experiment: 2D MTT cell viability assay, non-cancerous human foetal osteoblasts; assay type: cell-based; conditions: hFOBs (healthy cells), 72 h
Procedure: as §1, with “calculated.” for “calculated. The cell morphology in the presence of the complexes was evaluated at 15 and 30 µM concentrations, for MG63 and SAOS-2 and hFOBs cells, respectively, according to the IC50 at 72 h.”
as §2, §3
Statistical Analysis. […] The MTT results were further analysed using one-way analysis of variance (one-way ANOVA) and Dunnett’s multiple comparisons test. […]

[1] = tested on: MG63 cells on bone-mimetic scaffold; experiment: 3D scaffold-based osteosarcoma model (3D OS model), MTT cell viability; design: species or system Human; conditions: 15 µM, MG63 3D OS model
Procedure: as §1
Synthesis of bone-mimetic scaffolds. The Mg-doped hydroxyapatite collagen composite scaffolds were designed and synthesised at ISSMC of CNR of Italy. In brief, 150 g of collagen gel (1 wt%, Opocrin SpA, MO, Italy) was diluted into a phosphoric acid solution (2.4 g in 500 mL; H3PO4, 85 wt.%, Sigma-Aldrich) at room temperature to obtain an acidic aqueous homogenous suspension. […]
MTT cell viability assay. A quantitative analysis of cell viability was carried out by using MTT assay, following the manufacturer’s instructions. […]

SAOS-2 cells = experiment: 2D MTT cell viability assay, SAOS-2 osteosarcoma cells; assay type: cell-based, Human; conditions: SAOS-2, 2D, 72 h
Procedure: as §1, §2, §3

SMILES: N.N.[Cl][Pt][Cl] [Cisplatin, cis-[(NH3)2PtCl2], reference compound]
- effect on viable cells in 2D standard culture (MG63 cells; 15 µM, 2D standard culture, p-value ≤ 0.0001): significantly reduced the viable cells
- IC50 (MG63 cells; MG63, 2D, MTT, 72 h): 12.2 µM
- IC50 (hFOBs cells): 4.11 µM
- IC50 (hFOBs cells; listed as cisplatin): 4.1 µM
- effect on cell viability in 3D OS model [1]: did not compromise the cell viability
- IC50 (SAOS-2 cells): 13.7 µM
